Activity calls are given as the source filed them. The calls are words filed in the database; no cut-off is given here.
How the values were obtained:
[1] = Toxicity in C57 mouse assessed as change in GLO level at 20 mg/kg/day, IG administered for 14 days by heat map analysis; format: organism-based; settings: in vivo, po, 336 h, time 14 day
[2] = Toxicity in C57 mouse assessed as myelosuppression by measuring MPV level at 20 mg/kg/day, IG administered for 14 days by heat map analysis; format: organism-based; settings: in vivo, po, 336 h, time 14 day
[3] = AUC (0 to t) in male Sprague-Dawley rat at 2 mg/kg, iv measured after 48 hrs by triple quadrupole mass spectrometric analysis; format: ADME, organism-based; settings: in vivo
[4] = Tmax in male Sprague-Dawley rat at 2 mg/kg, iv measured after 48 hrs by triple quadrupole mass spectrometric analysis; format: ADME, organism-based; settings: in vivo
[5] = Toxicity in C57 mouse assessed as myelosuppression by measuring platelet level at 20 mg/kg/day, IG administered for 14 days by heat map analysis; format: organism-based; settings: in vivo, po, 336 h, time 14 day
B16-F10 [6] = assay: Effect on Histone H3 protein level in mouse B16-F10 cells at 0.1 to 2 uM incubated for 12 hrs by Western blot analysis; format: functional, cell-based; settings: dose 0.1-2 µM
[7] = biological target: Programmed cell death 1 ligand 1 (Mus musculus) (UniProt Q9EP73); assay: Binding affinity to C-terminal 6His-tagged recombinant mouse PD-L1 (1 to 238 residues) expressed in HEK293 cells assessed as change in secondary structure conformation at 2 uM incubated for 30 mins by CD spectra analysis; format: cell-based
[8] = Toxicity in C57BL/6 mouse model implanted with mouse B16-F10 cells assessed as body weight loss at 20 mg/kg/day, ip administered for 14 days; format: organism-based; settings: in vivo, 336 h, time 14 day
[9] = Toxicity in C57 mouse assessed as change in TBIL level at 20 mg/kg/day, IG administered for 14 days by heat map analysis; format: organism-based; settings: in vivo, po, 336 h, time 14 day
B16-F10 [10] = assay: Antitumor immunity activity against mouse B16-F10 cells implanted in C57BL/6 mouse model assessed as CD3+ CD4+ T cell percentage in tumor at 20 mg/kg/day, ip co-administered with ACY-1215 for 14 days by flow cytometric analysis (reference value: 0.095 %); format: functional; settings: time 14 day
[11] = Toxicity in C57 mouse assessed as myelosuppression by measuring hematocrit level at 20 mg/kg/day, IG administered for 14 days by heat map analysis; format: organism-based; settings: in vivo, po, 336 h, time 14 day
B16-F10 [12] = assay: Antitumor activity against mouse B16-F10 cells implanted in C57BL/6 mouse model assessed as tumor growth inhibition at 20 mg/kg/day, ip co-administered with ACY-1215 for 14 days relative to control; format: functional; settings: B16-F10, 336 h, time 14 day, read-out: TGI
B16-F10 [13] = assay: Antitumor activity against mouse B16-F10 cells implanted in C57BL/6 mouse model assessed as tumor growth inhibition at 20 mg/kg/day, ip administered for 14 days relative to control; format: functional; settings: B16-F10, 336 h, time 14 day, read-out: TGI
B16-F10 [14] = assay: Antitumor activity against mouse B16-F10 cells implanted in C57BL/6 mouse model assessed as reduction in tumor weight at 20 mg/kg/day, ip administered for 14 days; format: functional, organism-based; settings: time 14.0 day
[15] = MRT (0 to t) in male Sprague-Dawley rat at 10 mg/kg, po measured after 48 hrs by triple quadrupole mass spectrometric analysis; format: ADME, organism-based; settings: in vivo
[16] = biological target: T1, Protein deacetylase HDAC6 (Mus musculus) (UniProt Q9Z2V5); assay: Inhibition of HDAC6 in mouse B16-F10 cells assessed as increase in acetylated alpha-tubulin level incubated for 12 hrs by Western blot analysis; format: cell-based; settings: dose 0.1-2 µM
T1 sequence (whole entry): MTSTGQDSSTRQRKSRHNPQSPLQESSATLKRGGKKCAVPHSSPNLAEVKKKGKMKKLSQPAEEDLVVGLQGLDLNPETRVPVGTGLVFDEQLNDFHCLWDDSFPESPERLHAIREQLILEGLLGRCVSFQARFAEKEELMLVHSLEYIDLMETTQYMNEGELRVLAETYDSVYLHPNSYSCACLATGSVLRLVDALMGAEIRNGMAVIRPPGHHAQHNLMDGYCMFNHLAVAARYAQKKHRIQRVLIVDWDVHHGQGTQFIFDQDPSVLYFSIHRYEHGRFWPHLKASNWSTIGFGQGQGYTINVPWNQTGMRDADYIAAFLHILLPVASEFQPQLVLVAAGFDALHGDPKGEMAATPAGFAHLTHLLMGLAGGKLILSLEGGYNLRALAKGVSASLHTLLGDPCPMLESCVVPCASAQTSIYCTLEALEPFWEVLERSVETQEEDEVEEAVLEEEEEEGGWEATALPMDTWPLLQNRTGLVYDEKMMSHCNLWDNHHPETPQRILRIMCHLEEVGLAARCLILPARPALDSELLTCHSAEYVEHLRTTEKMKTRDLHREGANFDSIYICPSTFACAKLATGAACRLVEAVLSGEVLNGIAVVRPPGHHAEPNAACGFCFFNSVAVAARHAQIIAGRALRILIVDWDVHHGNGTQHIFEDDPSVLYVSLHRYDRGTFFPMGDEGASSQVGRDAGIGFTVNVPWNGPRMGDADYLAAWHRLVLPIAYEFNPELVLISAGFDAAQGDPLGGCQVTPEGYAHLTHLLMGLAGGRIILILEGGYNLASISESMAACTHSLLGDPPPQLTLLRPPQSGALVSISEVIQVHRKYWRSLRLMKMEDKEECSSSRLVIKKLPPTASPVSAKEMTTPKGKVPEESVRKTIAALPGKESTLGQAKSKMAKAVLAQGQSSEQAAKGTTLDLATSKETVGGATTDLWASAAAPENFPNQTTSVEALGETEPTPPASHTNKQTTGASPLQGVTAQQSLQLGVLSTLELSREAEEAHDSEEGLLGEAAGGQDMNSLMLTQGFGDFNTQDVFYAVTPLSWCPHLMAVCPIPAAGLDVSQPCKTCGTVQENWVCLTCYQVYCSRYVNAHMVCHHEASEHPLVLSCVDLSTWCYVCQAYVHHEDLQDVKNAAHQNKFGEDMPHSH

[17] = In vivo inhibition of PD-L1 in C57BL/6 mouse model implanted with mouse B16-F10 cells assessed as reduction in PD-L1 protein expression in tumor at 20 mg/kg/day, ip co-administered with ACY-1215 for 14 days by Western blot analysis relative to control; format: functional; settings: C57BL/6, B16-F10, 336 h, time 14 day
[18] = Toxicity in C57 mouse assessed as myelosuppression by measuring WBC level at 20 mg/kg/day, IG administered for 14 days by heat map analysis; format: organism-based; settings: in vivo, po, 336 h, time 14 day
[19] = Tmax in male Sprague-Dawley rat at 10 mg/kg, po measured after 48 hrs by triple quadrupole mass spectrometric analysis; format: ADME, organism-based; settings: in vivo
[20] = Cmax in male Sprague-Dawley rat at 2 mg/kg, iv measured after 48 hrs by triple quadrupole mass spectrometric analysis; format: ADME, organism-based; settings: in vivo
[21] = Apparent clearance during terminal phase in male Sprague-Dawley rat at 2 mg/kg, iv measured after 48 hrs by triple quadrupole mass spectrometric analysis; format: ADME, organism-based; settings: in vivo
MCF7 = assay: cells; settings: Homo sapiens, MCF7, 48 h
[22] = AUC (0 to t) in male Sprague-Dawley rat at 10 mg/kg, po measured after 48 hrs by triple quadrupole mass spectrometric analysis; format: ADME, organism-based; settings: in vivo

Sequence of Programmed cell death 1 ligand 1 (Mus musculus) (Q9EP73 whole entry, the tested form may be a part): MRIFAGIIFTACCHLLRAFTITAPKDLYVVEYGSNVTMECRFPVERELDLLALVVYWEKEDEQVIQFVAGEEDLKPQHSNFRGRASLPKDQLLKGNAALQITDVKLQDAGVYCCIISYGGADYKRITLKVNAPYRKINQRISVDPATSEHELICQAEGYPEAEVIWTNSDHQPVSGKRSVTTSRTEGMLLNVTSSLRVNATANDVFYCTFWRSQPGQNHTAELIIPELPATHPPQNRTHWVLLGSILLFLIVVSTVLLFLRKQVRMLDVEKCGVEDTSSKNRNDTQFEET

COc1nc(-c2cccc(-c3ccccc3)c2C)ccc1CNCCCCCCC(=O)NO
Activity [1]: Non-toxic | Activity [2]: Non-toxic | AUC(0-t) at 48 h [3]: 1140 ng·h/mL | Tmax [4]: 4.8 min | Activity [5]: Non-toxic | Activity (B16-F10 [6]): inactive | Activity [7]: Active | Activity [8]: Non-toxic | Activity [9]: Non-toxic | Activity (B16-F10 [10]): 7.72% | Activity [11]: Non-toxic | inhibition in vivo at 20 mg/kg/day (B16-F10 [12]): 53.9% | inhibition in vivo at 20 mg/kg/day (B16-F10 [13]): 65.5% | Activity (B16-F10 [14]): Active | MRT last at 48 h [15]: 15.3 h | inhibition [16]: Dose-dependent-effect | inhibition in vivo at 20 mg/kg/day [17]: ~62% | Activity [18]: Non-toxic | Tmax [19]: 5.55 h | Cmax [20]: 638 ng/mL | CLz/F [21]: 16.2 mL/min/kg | IC50 (MCF7): > 10 µM | AUC(0-t) at 48 h [22]: 872 ng·h/mL
